In article PMC4714926 (ACS chemical biology, 2015):

Key:
GFP-HIV protease fusion = assay: GFP-HIV protease reporter assay in HEK293 T-REx cells; assay type: cell-based, human
FKBP = details: read-out: KD for FKBP; cited from earlier work
recombinant human FKBP12 = recombinant human FKBP12 (Homo sapiens, UniProt P62942); assay: PAMPA partitioning with recombinant human FKBP12 on one side of the membrane; details: compared to control wells
recombinant human FKBP12, sequence (P62942 whole entry): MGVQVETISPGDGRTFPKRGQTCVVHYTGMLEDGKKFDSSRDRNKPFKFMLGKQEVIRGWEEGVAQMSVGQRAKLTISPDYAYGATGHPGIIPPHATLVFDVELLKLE

COc1ccc(S(=O)(=O)N(CC(C)C)C[C@@H](O)[C@H](Cc2ccccc2)NC(=O)O[C@H]2CCOC2)cc1 [4-OMe-amprenavir]
rescue of cell viability and GFP fluorescence (GFP-HIV protease fusion; 5 μM, after doxycycline induction, fluorescence and light microscopy): could rescue cell viability and increase fluorescence | dependence of GFP fluorescence on mCherry-FKBP12 over-expression (GFP-HIV protease fusion; transient mCherry-FKBP12 over-expression, microscopy): did not show this dependence on mCherry-FKBP12 expression

C=CC[C@@H]1/C=C(\C)C[C@H](C)C[C@H](OC)[C@H]2O[C@@](O)(C(=O)C(=O)N3CCCC[C@H]3C(=O)O[C@H](/C(C)=C/[C@@H]3CC[C@@H](O)[C@H](OC)C3)[C@H](C)[C@@H](O)CC1=O)[C@H](C)C[C@@H]2OC [FK506]
Kd (FKBP): ~0.6 nM

CC(C)CN(C[C@@H](O)[C@H](Cc1ccccc1)NC(=O)O[C@H]1CCOC1)S(=O)(=O)c1ccc(N)cc1 [amprenavir]
enhancement of partitioning by FKBP12 (recombinant human FKBP12): unaffected by FKBP12
